The assay deals with formation of advanced glycation end products (AGEs). Description: Antiglycation activity (BSA-glucose, AGE fluorescence). The format is biochemical. The conditions noted are these: for Antiglycation activity, M ± SEM: 24 h at 60 °C. How it is done: The glycation reaction was carried out in a phosphate buffer solution of 0.05 M, pH 7.4. Composition of the reaction medium: 0.36 M glucose solution and 1 mg/mL BSA (fraction V). The test compounds were dissolved in 99% DMSO (final concentration in the reaction medium ~3%). The activity of compound 1 was studied in the concentration range of 1000–0.1 μM, and the activity of aminoguanidine was determined at concentrations of 10,000–1000 μM. Control samples contained an equivalent volume of solvent. The samples were incubated for 24 h at 60 °C.
Data registration was carried out by the spectrofluorimetric method, determining AGE by specific fluorescence at excitation/emission wavelengths of 370/440 nm (spectrofluorimeter M 200 PRO, TECAN Austria GmbH, Grödig, Austria).
In order to exclude false positive results for compounds suppressing AGE fluorescence due to interference, the obtained data were logarithmically normalized according to Equation (4):Fly(log) = 10^(log10(Exp)−log10(Blank)) − 1(4) where Fly(log) is the normalized AGE fluorescence intensity, log10(Exp) and log10(blank) are the decimal logarithms of the actual fluorescence levels of glycated and corresponding non-glycated samples (both containing the test compound and controls).
The activity of other compounds (both non-fluorescent and fluorescent at the wavelengths used) was expressed by the Equation (5):Fly(lin) = Exp − Blank(5) where Fly(lin) is the fluorescence intensity of AGEs, Exp and blank are the actual fluorescence levels of glycated and corresponding non-glycated samples (both those containing the test compound and controls).
Determination of activity expressed as % suppression of fluorescence of AGE, was made according to the Equation (6):% = 100 − (Fly(Exp) × 100/Fly(Contr))(6) where Fly(Exp) and Fly(Contr) are the CPG fluorescence intensity of experimental and control samples, respectively (log-normalized or non-log-normalized).

Structures are written as SMILES.

By IC50 is commonly meant the point on the concentration scale where inhibition reaches its midpoint. Low values mean inhibition by little substance, high ones a need for much substance.

On to `CC(C)(C)c1cc(C(=O)N/N=C/c2ccccc2O)cc(C(C)(C)C)c1O` [Compound 1, Di-tert-butyl-4-hydroxy-N′-(2-hydroxybenzylidene)-benzohydrazine], for which the midpoint of inhibition, the IC50, lay at 2800 nM. For the same compound, the “Antiglycation activity, M ± SEM” value (concentration 0.3 µM) is on record as −1.9 ± 1.4%. The “Antiglycation activity, M ± SEM” value (concentration 1 µM) is given as 0.6 ± 2.3%. Besides, the “Antiglycation activity, M ± SEM” value (concentration 3 µM) was determined as 53.9 ± 2.5%. In addition, for the setting “concentration 10 µM”, the “Antiglycation activity, M ± SEM” value worked out at 60.1 ± 1.1%. Further, the “Antiglycation activity, M ± SEM” value (concentration 30 µM) was 62.0 ± 0.7%. Besides, under “concentration 100 µM”, the “Antiglycation activity, M ± SEM” value was determined as 61.6 ± 0.5%. Besides, under “concentration 300 µM”, the “Antiglycation activity, M ± SEM” value is 73.2 ± 1.9%. The “Antiglycation activity, M ± SEM” value (concentration 1000 µM) is reported as 70.2 ± 8.0%.

The values above are taken from article PMC9741287, “Cytotoxic and Luminescent Properties of Novel Organotin Complexes with Chelating Antioxidant Ligand” (Molecules, 2022).
